The text below walks through data of publication PMC8878324, “Evaluation of New Antimicrobial Agents Based on tris(1H-Indol-3-yl)methylium Salts: Activity, Toxicity, Suppression of Experimental Sepsis in Mice” (Pharmaceuticals, 2022).

A word on the MIC: it is the lowest concentration found to suppress growth. A word on the IC50: it is the midpoint of a concentration-inhibition curve. Higher therefore signals lower potency.

Data set [1] has as its system Aspergillus niger ATCC 16404. Briefly: MIC by broth microdilution (RPMI 1640). Type of data set: cell-based. The following applies: ATCC16404. As to the method:
(§1) We have tested the antimicrobial activity in vitro of over 100 tris(indolyl)methane derivatives against 16 strains of Gram-positive, Gram-negative bacteria and fungi including either sensitive or drug-resistant strains from ATCC, as well as resistant clinical isolates from the culture collection of the Laboratory for Control of Hospital Infections (Sechenov University, Moscow, Russia). The minimum inhibitory concentrations (MICs) were determined by the microdilution method in a cation-adjusted Müller–Hinton medium for bacteria and in a liquid culture medium RPMI 1640 with L-glutamine without sodium bicarbonate for fungi in accordance with the requirements of the Institute of Clinical and Laboratory Standards (CLSI/NCCLS). […] As a rule, their activity against Gram-negative bacteria was usually not that high. […] For comparison, the antimicrobial activity of prototype 4 is shown. The antibacterial antibiotic levofloxacin and the antifungal amphotericin B were used as reference drugs (Table 1).
(§2) The synthesis of compounds and the scheme of their preparation and purification, as well as physicochemical characteristics, were described earlier. To evaluate the biological activity in vitro, the compounds were dissolved in DMSO at a concentration of 2.0–6.4 mg/mL, followed by preparation of two-fold dilutions in the same solvent, if necessary. The solutions were further diluted in an aqueous medium for the final concentration of DMSO not to exceed 1%, and the concentration of the compounds ranged from 64.0 to 0.13 μg/mL. To study compounds in vivo, solutions for intravenous administration in 5% glucose solution were prepared. Solutions were sterilized by filtration through 0.22 µm filters (Millipore, Burlington, MA, USA).
(§3) Strains of Gram-positive, Gram-negative bacteria and fungi including sensitive or drug-resistant strains from ATCC, as well as resistant clinical isolates from the culture collection of the Laboratory for Control of Hospital Infections (Sechenov University, Moscow, Russia), were used. Clinical isolates of Gram-positive bacteria Staphylococcus aureus 5 (MRSA), Staphylococcus aureus 10, Staphylococcus aureus 100KC (MRSA), Staphylococcus epidermidis 533, Staphylococcus haemoliticus 585 and Enterococcus faecium 569, as well as collection cultures of Gram-positive bacteria Staphylococcus aureus ATCC 700699, Staphylococcus aureus ATCC 25923, Staphylococcus aureus ATCC 3798 and collection cultures of Gram-negative bacteria Escherichia coli ATCC 25922, Klebsiella pneumoniae ATCC 13883, Proteus vulgaris ATCC 13315, Salmonella cholerasuis ATCC 14028, Pseudomonas aeruginosa ATCC 27853 and collection cultures of the yeast Candida albicans ATCC 14053 and the fungi Aspergillus niger ATCC 16404 were used. To grow the microorganisms, we used Trypticase Soy Agar (TSA, Sigma-Aldrich Co., Burlington, MA, USA). Trypticase Soy Agar, BBL, was used for cultivation of Staphylococcus spp. and E. coli. For cultivation of Enterococcus spp. and P. aeruginosa we used a ready-made dry medium Columbia Agar Base, BBL. The media were sterilized by autoclaving at 121 °C for 15 min. Yeast culture C. albicans was grown on Sabouraud agar (peptone—10 g, glucose—40 g, agar—20 g, distilled water—1 L, pH 6.0), and filamentous fungi A. niger was grown on potato–glucose agar (potatoes—200 g, glucose—20 g, agar—15 g, distilled water—1 L, pH 5.5–6.0).
(§4) To determine the antibacterial effect, a liquid Müller–Hinton medium (Becton, Dickinson and Company, Cockeysville, MD, USA) was used; to determine the effect of compounds on fungi we used RPMI 1640 medium with L-glutamine, without sodium bicarbonate, which was prepared from a dry medium (ICN Biomedicals Inc., Costa Mesa, CA, USA) by dilution in distilled water, subsequent buffering with 0.165 M of morpholinepropanesulfonic acid (MOPS, Acros Organics B.V.B.A., Morris Plains, NJ, USA) and adjusting the pH of the medium to 7.0 by adding 1 N of NaOH solution. […]

Data set [2] has as its system Candida albicans ATCC 14053. Briefly: MIC by broth microdilution (RPMI 1640). Type of data set: cell-based. As to conditions: ATCC14053. As to the method:
as §1, §2, §3, §4

Data set [3] is described as follows: Cytotoxic activity, MTT assay. Type of data set: cell-based, human. The following applies: human, HPF-hTERT. As to the method:
(§5) The cytotoxic activity of the compounds was evaluated on the healthy donor (postnatal) human fibroblasts immortalized by transfection of the hTERT gene of the catalytic component of telomerase (hereinafter HPF-hTERT) that were obtained from N.N. Blokhin Russian Cancer Research Center. HFC-hTERT cells were cultured in Dulbecco’s modified medium (DMEM) containing 2 mM of L-glutamine, 10% fetal calf serum, 100 U/mL of penicillin and 100 μg/mL of streptomycin. Incubation was performed in a humidified atmosphere of 5% CO2 at 37 °C. In the experiment, we used cells in the logarithmic growth phase. To study the cytotoxicity of compounds, 190 μL of cell suspension (~2 thousand cells per well) was added to the wells of 96-well plates and incubated for 16 h. On the day of the experiment, serial dilutions of the test compounds were prepared in DMSO (stock solution—10 mM in 100% DMSO). Further dilutions were conducted in a nutrient medium. The final concentrations of compounds in the experiment were in a concentration range from 0.0025 to 50 μM. The final concentration of DMSO was 1% or less. Each concentration was presented in 3 repetitions. […] The cells were incubated with the test compounds for 72 h. After the end of incubation, 20 μL of MTT solution in growth medium (5 mg/mL) was added to the wells. The cells were incubated for 2 h until a purple color developed, after which the culture medium was removed. DMSO was added to the wells, and the sediment was suspended. Optical density was measured with a Thermo Scientific Multiscan FC spectrophotometer at 570 nm. The values of optical density in wells without addition of test compounds (control) were taken as 100% cell survival. The percentage of survival of cells incubated with the test compounds was calculated by dividing the optical density in the corresponding well (average of 3 independent measurements) by the optical density in the control. The concentration of drugs causing 50% cell death (IC50) was evaluated and expressed in μg/mL.
In general terms: Tetrazolium assays rely on reduction of a dye to a coloured formazan, in cell work by metabolically active cells.

The next data set relates to HPF-hTERT. Briefly: Cytotoxic activity, MTT assay. Type of data set: cell-based, human. As to conditions: 72 h. As for the experimental part: as §5

With `OCCCCCn1cc([C+](c2cn(CCCCCO)c3ccccc23)c2cn(CCCCCO)c3ccccc23)c2ccccc21.[Cl-]` [Compound 1, tris(1-(5-Hydroxypentyl)-1H-indol-3-yl) methylium chloride], the minimum inhibitory concentration (MIC) in data set [1] and in data set [2] was above 64 µg/mL each time. The same compound yielded an IC50 at 72 h in data set [3] of 12.6 µg/mL. The “Cytotoxic Activity IC50” value in the data set on HPF-hTERT is 13 µg/mL.

Turning to `CCCn1cc([C+](c2cn(CCC)c3ccccc23)c2cn(C3=C(N)C(=O)NC3=O)c3ccccc23)c2ccccc21.[Cl-]` [Compound 2, (1-(4-Amino-2,5-dioxo-2,5-dihydro-1H-pyrrol-3-yl)-1H-indol-3-yl)bis(1-propyl-1H-indol-3-yl) methylium chloride], the results for the MIC in data set [1] and in data set [2] were 8 µg/mL and 12 µg/mL, respectively. The compound further returned an IC50 at 72 h in data set [3] of 2.77 µg/mL. The “Cytotoxic Activity IC50” value in the data set on HPF-hTERT turned out to be 2.8 µg/mL.

On to `CCCn1cc([C+](c2cn(CCC)c3ccccc23)c2cn(C3=C(N(C)C)C(=O)NC3=O)c3ccccc23)c2ccccc21` [Compound 3, 1-(4-Dimethylamino-2,5-dioxo-2,5-dihydro-1H-pyrrol-3-yl) -1H-indol-3-yl) bis(1-propyl-1H-indol-3-yl) methylium chloride], for which the MIC in data set [1] and in data set [2] was 2 µg/mL each time. Further, the IC50 at 72 h in data set [3] was determined as 0.57 µg/mL. Also, the “Cytotoxic Activity IC50” value with HPF-hTERT worked out at 0.6 µg/mL.

The compound `C[C@H]1COc2c(N3CCN(C)CC3)c(F)cc3c(=O)c(C(=O)O)cn1c23` [Levofloxacin, levofloxacin, reference compound] registered a half-maximal inhibitory concentration (IC50) at 72 h in data set [3] above 50 µg/mL.
